Experimental data taken from patent publication US20250025451A1, “TREATMENT OF CANCER WITH KDM4 INHIBITORS” (Celgene Corporation, priority 2021, published 2025).
Read-outs that look alike come from different tables or passages of the source.

Legend:
[1] = test system: SU106 patient-derived colon cancer organoid model; assay: organoid colony formation assay, SU106; format: cell-based, human
Method: The IC50 values for Compound 1 inhibition of colony formation and viability were determined for the patient-derived colon cancer organoid models: SU60, T002C, SU62, SU34, SU103, T03SC, and SU106, patient-derived pancreatic cancer organoid models PA016SF, PA0143F, T016P, and T028P, and a patient-derived breast cancer organoid model FS5S3.
Colony formation and viability assays were performed in multiwell plates seeded with organoids using an in vitro culture system composed of a Matrigel layer, media containing a defined set of growth factors, and co-culture with Wnt3 A-secreting mouse embryonic fibroblasts. Assays were initiated by adding either DMSO as a negative control, or an inhibitor panobinostatat 100×IC50 concentration as a positive control, or serially diluted Compound 1. The cultures were incubated for 168 or 144 hours after which the number of viable organoids in each test well was assessed respectively using one of two detection methods: CTG or staining with calcein-AM followed by imaging and colony counting. Colony count or viability of cells treated with compound 1 was expressed as a percent of the negative control. Aggregated Percent of Control values were plotted against the corresponding Compound 1 concentration and the absolute IC50 value was determined from a non-linear regression curve as the concentration where inhibition was 50% of the control.

[2] = test system: erythroid hematopoietic progenitor cells derived from human bone marrow; assay: erythroid colony formation of hematopoietic progenitor cells; format: cell-based
Method: Compound 1 was evaluated for its effects on proliferation of erythroid and myeloid hematopoietic progenitor cells derived from human bone marrow at […] Technologies Inc. (Vancouver, BC, Canada).
Cells were thawed rapidly at 37° C. into DNAse I and then diluted in 10 mL of Iscove's Modified Dulbecco's medium containing 2% fetal bovine serum (IMDM+2% FBS) and washed by centrifugation (1200 rpm for 10 minutes at room temperature). The supernatant was discarded and the cell pellet resuspended in a known volume of IMDM+2% FBS. A nucleated cell count (3% glacial acetic acid) and viability assessment (trypan blue exclusive test) were performed.
Compound 1 and positive control (panobinostat) were diluted in DMSO and tested at concentrations ranging from 0.002 μM to 5 μM in final media. These dilutions provided the appropriate final test concentrations required for the test and control articles ([…], and 0.002 μM).
Test and control articles were incubated with human bone marrow hematopoietic progenitor cells. After 14 days, cell colonies were assessed.
To calculate the concentration of 50% and 90% inhibition of colony growth (IC50 and IC90) for each test article, a dose response curve was generated plotting the log of the test article concentration versus the percentage of control colony growth using GraphPad Prism. […] The IC50 and IC90 values for both test and control articles were derived from an interpolation of the curve fit. In cases where the IC50/90 value reported by GraphPad Prism is a value beyond the range of concentrations that were actually tested, if this value is more than 4 times the highest concentration tested, or where GraphPad Prism cannot calculate an IC50/90 value, notations of >5 μM (for test article compound 1) are used.

[3] = test system: tumorigenic CD44^High;EpCAM^+ cells of SU60 xenograft tumors; assay: flow cytometry analysis of tumorigenic cell population after treatment of SU60 xenograft tumors; format: in vivo; details: NSG female mice, 40 mg/kg PO QD x21
Method: The ability of Compound 1 to affect tumorigenic potential was analyzed by flow cytometry analysis of the tumorigenic cell population and functional in vivo tumorigenicity assay (limiting dilution assay).
To assess the effect of Compound 1 on tumorigenic cell population, Compound 1 was used to treat SU60 xenograft tumors. NSG female mice engrafted with SU60 cells (7 mice each group) were administered Compound 1 at 40 mg/kg PO QD×21. The day after the last dose, three tumors nearest to the mean size from each group were dissociated and the single cells were used to perform: 1) flow cytometry analysis of the tumorigenic cell population and 2) functional in vivo tumorigenicity assay (limiting dilution assay). Flow Cytometry Analysis of Tumorigenic Cell Population after Compound 1 Treatment
The proportion of tumorigenic CD44^High;EpCAM^+ cells in the cell population was quantified by flow cytometry. […] Flow cytometry analysis performed on single cell isolated from 3 vehicle-treated and 3 Compound 1-treated tumors. P-value was determined with unpaired Student T-test.

[4] = test system: KYSE-150 human esophageal cancer xenograft; format: in vivo; details: for Median Tumor Volumes Day 21: KYSE-150 CDX Study #2, female NOD/SCID mice; for % TGI / Median Tumor Volumes Diff.: KYSE-150 Study #2; for % TGI: Day 21; for Median Tumor Volumes Diff.: Day 21 minus Day 1
Method: The therapeutic in vivo efficacy of Compound 1 was evaluated in SU60 colorectal cancer, KYSE-150 esophageal cancer, COH70 triple-negative breast cancer, GXA-3036 gastric adenocarcinoma and OCI-LY19 Diffuse Large B-Cell Non-Hodgkin's Lymphoma xenograft models. In all studies, efficacy was determined based on percent tumor growth inhibition (TGI), differences in mean tumor growth, and statistical assessment of differences in net tumor volume distributions on the day of TGI analysis between control and treated animals. Tolerability was assessed based on differences in mean body weights between control and treated animals over the course of the study.
Study #2—The in vivo therapeutic efficacy and tolerability of Compound 1, administered orally as the lysine salt suspended in a vehicle comprised of 10% PEG 400 and 90% of 0.5% MC, was evaluated in the KYSE-150 ESCC CDX model established in female NOD/SCID mice. Each mouse was inoculated subcutaneously in the right flank with 1×10^7 KYSE-150 tumor cells (0.1 ml) suspended in 50% Matrigel. When the average tumor size reached ˜153 mm3, test animals were randomized into 4 groups consisting of 8 mice per group and treatments were initiated. Control mice received 10% PEG 400 and 90% of 0.5% MC vehicle PO QDx21. Treated mice received the Compound 1 lysine salt form suspended in vehicle at 10, 15, or 20 mg/kg on the same schedule. TGI was determined on Day 21 as (1−Difftreated/Diffcontrol)×100. Individual tumors were measured twice weekly in two dimensions using a caliper, and the tumor volumes (TV) in mm3 were calculated using the formula: TV=0.5 a×b2, where a and b are the long and short tumor diameters in mm, respectively; Mean tumor volumes±SEM were calculated and plotted versus days of dosing (FIG. 12 left panel). Body weights were measured twice weekly. Body weights±SEM were calculated and plotted versus days of dosing (FIG. 12 right panel).
The difference in mean net tumor volumes on the day of TGI analysis for treated versus control animals was evaluated statistically using one-way ANOVA followed by Dunnetts multiple comparisons test. Adjusted p-values are shown where a calculated probability (p)≤0.05 was considered statistically significant.

In the case of `CC(C)c1ccc(N(C)c2ccc3c(c2)OCC[C@H]3CNc2cnccc2C(=O)O)cc1` [Compound 1, 3-({[(4R)-7-{methyl[4-(propan-2-yl)phenyl]amino}-3,4-dihydro-2H-1-benzopyran-4-yl]methyl}amino)pyridine-4-carboxylic acid], the IC50 ([1]; Homo sapiens, SU106 colorectal carcinoma model) is reported as greater than 10 µM, the IC50 ([1]; SU106 human colorectal carcinoma organoid, 144 hrs, Colony Counts) is reported as greater than 10 µM and the IC50 ([2]; 336 h, human bone marrow progenitor cells, 14 days, read-out: IC50, inhibition of erythroid colony formation) is reported as greater than 5 µM. For the same compound, the IC90 ([2]; 336 h, human bone marrow progenitor cells, colony growth after 14 days) was greater than 5 mg/L, the IC50 ([2]; 336 h, human bone marrow progenitor cells, colony growth after 14 days, read-out: Erythroid IC50) was greater than 5 mg/L and the “concentrations at which colony morphology (size and density) was slightly compromised” value ([2]; erythroid derived colonies) was no less than 1.67 μM. The “effect on colony formation compared to 0.1% DMSO” value ([2]; progenitor cells from normal human bone marrow, p>0.01) was “no significant effect”, the “reduction of the proportion of tumorigenic cells (CD44^High;EpCAM^+) compared to vehicle control” value [3] was 2.5 fold and the “Median Tumor Volumes Day 21” value ([4]; lysine salt 10 mg/kg (free acid equivalents) PO QD x21) was 1027 mm^3. For the same compound, the “Median Tumor Volumes Day 21” value ([4]; lysine salt 15 mg/kg (free acid equivalents) PO QD x21) was 620 mm^3, the “Median Tumor Volumes Day 21” value ([4]; lysine salt 20 mg/kg (free acid equivalents) PO QD x21) was 469 mm^3 and the “% TGI” value ([4]; 10 mg/kg PO QD x21) was 54%. The “Median Tumor Volumes Diff.” value ([4]; 10 mg/kg PO QD x21) was 876 mm^3, the “% TGI” value ([4]; 15 mg/kg PO QD x21) was 76% and the “Median Tumor Volumes Diff.” value ([4]; 15 mg/kg PO QD x21) was 468 mm^3. The “% TGI” value ([4]; 20 mg/kg PO QD x21) was 84% and the “Median Tumor Volumes Diff.” value ([4]; 20 mg/kg PO QD x21) was 315 mm^3.
